Data reported in the NIST ThermoML archive (doi:10.1021/acs.jced.6b00587).

Settings: Liquid, Ebulliometric method (Recirculating still)

CCCCOCC [butyl ethyl ether]
Settings | vapor or sublimation pressure [kPa]
336.22 K | 38.6
340.35 K | 44.96
344.21 K | 51.67
346.8 K | 56.24
348.84 K | 60
350.44 K | 63.63
354.01 K | 71.58
357.31 K | 79.6
361.44 K | 90.59
363.47 K | 96.36
365.25 K | 101.3

CCCOCCC [dipropyl ether]
Settings | vapor or sublimation pressure [kPa]
326.73 K | 29.35
332.57 K | 36.71
336.55 K | 42.54
341.15 K | 49.98
345.34 K | 57.75
346.55 K | 60
346.63 K | 60
347.55 K | 62.3
352.11 K | 72.36
354.82 K | 78.97
356.85 K | 84.25
358.73 K | 89.3
361.18 K | 96.32
362.87 K | 101.3

CCCCCCC [heptane]
Settings | vapor or sublimation pressure [kPa]
331.39 K | 26.15
335.45 K | 30.59
341.94 K | 38.89
347.16 K | 46.8
349.68 K | 50.97
352.58 K | 56.2
354.63 K | 60
356.78 K | 64.6
359.38 K | 70.24
362.11 K | 76.47
364.95 K | 83.45
366.87 K | 88.4
371.28 K | 101.3
